{"source": "paper PMC10607100", "about": "“Anticancer and Antiphytopathogenic Activity of Fluorinated Isatins and Their Water-Soluble Hydrazone Derivatives” (International Journal of Molecular Sciences, 2023)", "format_in_all_cases": "cell-based", "key": {"[1]": {"tested_on": "Fusarium oxysporum IBPPM 543", "experiment": "Mycelial radial growth inhibition", "conditions": "for inhibition of growth at 1 µM: 1 nmol/mL; for inhibition of growth at 1 µM / inhibition of growth at 5 µM / inhibition of growth at 20 µM / inhibition of growth at 40 µM: read-out: Inhibition value, I (%); for inhibition of growth at 5 µM: 5 nmol/mL; for inhibition of growth at 20 µM: 20 nmol/mL; for inhibition of growth at 40 µM: 40 nmol/mL", "source_text": "(§1) Plant pathogenic bacterial strains Micrococcus luteus B-109, Pectobacterium atrosepticum 1043, Pectobacterium carotovorum subsp. carotovorum MI, Pseudomonas fluorescens EL-2.1, and Xanthomonas campestris B-610 and the fungal strain Fusarium oxysporum IBPPM 543 were from the Collection of Rhizosphere Microorganisms, IBPPM RAS (WFCC no. 975, WDCM no. 1021) (CM IBPPM, http://collection.ibppm.ru). The pathogenic fungus Phytophthora cactorum VKM F-985, provided by the All-Russian Collection of Microorganisms (VKM) and deposited at the A.E. Favorsky Irkutsk Institute of Chemistry, SB RAS, was also used as a test organism. Bacteria M. luteus, P. carotovorum subsp. carotovorum, P. atrosepticum, and P. fluorescens were grown in a meat–peptone medium (BP), and X. campestris was grown in the medium with glucose, yeast extract, and calcium carbonate (GYCa). Solid media contained Bacto agar (18 g/L); pH was adjusted to 7.2–7.4. All bacterial cultures were grown at 28 °C. The mycelial cultures of F. oxysporum and P. cactorum were grown on a glucose–peptone–yeast (GPY) nutrient medium at 27 °C. For inoculum preparation, both fungal strains were initially grown on the agar GPY in Petri dishes and then transferred into the seed medium by punching out 5 mm of the agar plate culture with a self-designed cutter.\n(§2) For the fungicidal activity analysis, radial growth (colony diameters) of the fungi on a solid medium in the absence and in the presence of the compounds 5a–e and 7a–c solutions at various concentrations were compared. The method consisted of the following: A sterile GPY agar medium (20.0 mL), which was melted and then allowed to cool to approximately 60 °C, was mixed with the precisely measured volumes of the solutions under question and poured into a sterile Petri dish (90 mm i.d.). After the solidification of GPY agar, the media were inoculated by the fungus using 10-day-old cultures of F. oxysporum or P. cactorum. The inoculation was conducted by transferring a 5-mm (i.d.) GPY-agar block covered with mycelium to the center of the Petri dish, followed by incubation in a thermostat at 27 °C. The fungicidal effect was scored by the size of the mycelium colony on a Petri dish compared to the control without fungicidal admixtures to GPY agar. Each treatment was performed in at least four replicates in two independent experiments. The observation period ended when the control Petri dish was filled with mycelium (usually after 12 days). […] The solutions of the compounds were prepared with a concentration of 2 mmol/L (stock solution). For comparison, test compounds were also commonly applied as disinfecting agents, and antibiotics were used as a positive control."}, "[2]": {"tested_on": "Phytophthora cactorum VKM F-985", "experiment": "Mycelial radial growth inhibition", "conditions": "for inhibition of growth at 3 µM: 3 nmol/mL; for inhibition of growth at 3 µM / inhibition of growth at 7 µM / inhibition of growth / inhibition of growth at 40 µM: read-out: Inhibition value, I (%); for inhibition of growth at 7 µM: 7 nmol/mL; for inhibition of growth: 27 nmol/mL; for inhibition of growth at 40 µM: 40 nmol/mL", "source_text": "as §1, §2"}, "[3]": {"tested_on": "Pectobacterium carotovorum subsp. carotovorum MI", "experiment": "Agar-well diffusion, bactericidal activity", "conditions": "Pectobacterium carotovorum, 2 mM/L", "source_text": "as §1\n(§3) The antibacterial and antifungal activities of the compounds were explored using the agar-well diffusion method and the technique of mycelial radial growth inhibition. The method of diffusion in agar (measuring the diameter of growth inhibition zones) was used to determine the bactericidal activity. The 6-mm wells were made in agar medium (GYCa for Xanthomonas campestris or BP for other bacteria). Bacterial suspensions were distributed over the agar surface, and the tested compound’s solution (150 μL) was added to each well. The width of growth inhibition zones around the wells was determined after incubation for 36–40 h."}, "[4]": {"tested_on": "Pseudomonas fluorescens EL-2.1", "experiment": "Agar-well diffusion, bactericidal activity", "conditions": "Pseudomonas fluorescens, EL2.1; 2 mM/L; average of 3 experiments; read-out: width of the inhibition zone (mm), Ps. fluorescens", "source_text": "as §1, §3"}, "[5]": {"tested_on": "Pectobacterium atrosepticum 1043", "experiment": "Agar-well diffusion, bactericidal activity", "conditions": "Pectobacterium atrosepticum, 1043; 2 mM/L; average of 3 experiments; read-out: width of the inhibition zone (mm), P. atrosepticum", "source_text": "as §1, §3"}, "[6]": {"tested_on": "Micrococcus luteus B-109", "experiment": "Agar-well diffusion, bactericidal activity", "conditions": "Micrococcus luteus", "source_text": "as §1, §3"}, "[7]": {"tested_on": "Xanthomonas campestris B-610", "experiment": "Agar-well diffusion, bactericidal activity", "conditions": "Xanthomonas campestris", "procedure": "Bacteria M. luteus, P. carotovorum subsp. carotovorum, P. atrosepticum, and P. fluorescens were grown in a meat–peptone medium (BP), and X. campestris was grown in the medium with glucose, yeast extract, and calcium carbonate (GYCa). Solid media contained Bacto agar (18 g/L); pH was adjusted to 7.2–7.4. […] For inoculum preparation, both fungal strains were initially grown on the agar GPY in Petri dishes and then transferred into the seed medium by punching out 5 mm of the agar plate culture with a self-designed cutter.\nas §3"}, "[8]": {"tested_on": "five representative phytopathogens", "experiment": "Agar-well diffusion, bactericidal activity over the panel of phytopathogens", "conditions": "36 h, 2 mM solutions; dependent on the test system used; read-out: inhibition zone width (mm), range over the test systems", "source_text": "as §1, §3"}, "[9]": {"conditions": "Fusarium oxysporum, IBPPM543, 72 h, age of the fungus 3 days"}, "[10]": {"conditions": "Fusarium oxysporum, IBPPM543, 120 h, age of the fungus 5 days"}, "[11]": {"conditions": "Fusarium oxysporum, IBPPM543, 168 h, age of the fungus 7 days"}, "[12]": {"conditions": "Fusarium oxysporum, IBPPM543, 216 h, age of the fungus 9 days"}, "[13]": {"conditions": "Phytophthora cactorum, 72 h, age of the fungus 3 days"}, "[14]": {"conditions": "Phytophthora cactorum, 120 h, age of the fungus 5 days"}, "[15]": {"conditions": "Phytophthora cactorum, 168 h, age of the fungus 7 days"}, "[16]": {"conditions": "Phytophthora cactorum, 216 h, age of the fungus 9 days"}}, "note": "Read-outs that look alike come from different tables or passages of the source."}
{"smiles": "Cc1ccc[n+](CC(=O)N/N=C2\\C(=O)N(Cc3c(F)cccc3Cl)c3ccccc32)c1C", "note": "[Compound 7b]", "values": [{"measurement": "inhibition of growth at 1 µM", "setting": "[1]; [9]", "result": 13, "unit": "%"}, {"measurement": "inhibition of growth at 5 µM", "setting": "[1]; [9]", "result": 32, "unit": "%"}, {"measurement": "inhibition of growth at 20 µM", "setting": "[1]; [9]", "result": 35, "unit": "%"}, {"measurement": "inhibition of growth at 40 µM", "setting": "[1]; [9]", "result": 55, "unit": "%"}, {"measurement": "EC50", "setting": "[1]; Fusarium oxysporum, IBPPM543, 120 h, day 5, read-out: EC50, µg/mL at Day 5, F. oxysporum", "result": "≤ 21", "unit": "µg/mL"}, {"measurement": "inhibition of growth at 1 µM", "setting": "[1]; [10]", "result": 15, "unit": "%"}, {"measurement": "inhibition of growth at 5 µM", "setting": "[1]; [10]", "result": 29, "unit": "%"}, {"measurement": "inhibition of growth at 20 µM", "setting": "[1]; [10]", "result": 35, "unit": "%"}, {"measurement": "inhibition of growth at 40 µM", "setting": "[1]; [10]", "result": 52, "unit": "%"}, {"measurement": "inhibition of growth at 1 µM", "setting": "[1]; [11]", "result": 10, "unit": "%"}, {"measurement": "inhibition of growth at 5 µM", "setting": "[1]; [11]", "result": 20, "unit": "%"}, {"measurement": "inhibition of growth at 20 µM", "setting": "[1]; [11]", "result": 30, "unit": "%"}, {"measurement": "inhibition of growth at 40 µM", "setting": "[1]; [11]", "result": 43, "unit": "%"}, {"measurement": "inhibition of growth at 1 µM", "setting": "[1]; [12]", "result": 11, "unit": "%"}, {"measurement": "inhibition of growth at 5 µM", "setting": "[1]; [12]", "result": 13, "unit": "%"}, {"measurement": "inhibition of growth at 20 µM", "setting": "[1]; [12]", "result": 25, "unit": "%"}, {"measurement": "inhibition of growth at 40 µM", "setting": "[1]; [12]", "result": 39, "unit": "%"}, {"measurement": "fungicidal action stronger than N-cetylpyridinium chloride", "setting": "[1]; same culture age (5 days)", "result": 7.0, "unit": "times"}, {"measurement": "inhibition of Fusarium growth greater than fludioxonil", "setting": "[1]; same culture age (5 days)", "result": 4.1, "unit": "times"}, {"measurement": "antagonistic effect superior to that of N-cetylpyridinium chloride", "setting": "[2]; 5 days of growth", "result": 1.3, "unit": "times"}, {"measurement": "antagonistic effect superior to that of fludioxonil", "setting": "[2]; 5 days of growth", "result": 1.1, "unit": "times"}, {"measurement": "inhibition of growth at 3 µM", "setting": "[2]; [13]", "result": 15, "unit": "%"}, {"measurement": "inhibition of growth at 7 µM", "setting": "[2]; [13]", "result": 25, "unit": "%"}, {"measurement": "inhibition of growth", "setting": "[2]; [13]", "result": 30, "unit": "%"}, {"measurement": "inhibition of growth at 40 µM", "setting": "[2]; [13]", "result": 39, "unit": "%"}, {"measurement": "EC50", "setting": "[2]; Phytophthora cactorum, 120 h, day 5, read-out: EC50, µg/mL at Day 5, P. cactorum", "result": "≤ 28", "unit": "µg/mL"}, {"measurement": "inhibition of growth at 3 µM", "setting": "[2]; [14]", "result": 12, "unit": "%"}, {"measurement": "inhibition of growth at 7 µM", "setting": "[2]; [14]", "result": 25, "unit": "%"}, {"measurement": "inhibition of growth", "setting": "[2]; [14]", "result": 32, "unit": "%"}, {"measurement": "inhibition of growth at 40 µM", "setting": "[2]; [14]", "result": 40, "unit": "%"}, {"measurement": "inhibition of growth at 3 µM", "setting": "[2]; [15]", "result": 9, "unit": "%"}, {"measurement": "inhibition of growth at 7 µM", "setting": "[2]; [15]", "result": 22, "unit": "%"}, {"measurement": "inhibition of growth", "setting": "[2]; [15]", "result": 28, "unit": "%"}, {"measurement": "inhibition of growth at 40 µM", "setting": "[2]; [15]", "result": 37, "unit": "%"}, {"measurement": "inhibition of growth at 3 µM", "setting": "[2]; [16]", "result": 7, "unit": "%"}, {"measurement": "inhibition of growth at 7 µM", "setting": "[2]; [16]", "result": 16, "unit": "%"}, {"measurement": "inhibition of growth", "setting": "[2]; [16]", "result": 21, "unit": "%"}, {"measurement": "inhibition of growth at 40 µM", "setting": "[2]; [16]", "result": 35, "unit": "%"}, {"measurement": "zone of inhibition at 2000 µM", "setting": "[3]; average of 3 experiments, read-out: width of the inhibition zone (mm), P. carotovorum subsp. carotovorum", "result": 5, "unit": "mm"}, {"measurement": "zone of inhibition at 2000 µM", "setting": "[3]; Table S3, read-out: Inhibition zone width (mm), not less", "result": "≥ 5", "unit": "mm"}, {"measurement": "zone of inhibition at 2000 µM", "setting": "[4]", "result": 4.5, "unit": "mm"}, {"measurement": "zone of inhibition at 2000 µM", "setting": "[5]", "result": 4, "unit": "mm"}, {"measurement": "zone of inhibition at 2000 µM", "setting": "[6]; B109, 2 mM/L, average of 3 experiments, read-out: width of the inhibition zone (mm), M. luteus", "result": 7, "unit": "mm"}, {"measurement": "zone of inhibition at 2000 µM", "setting": "[6]; B109, Table S3, 2 mM/L, read-out: Inhibition zone width (mm), not less", "result": "≥ 7", "unit": "mm"}, {"measurement": "zone of inhibition at 2000 µM", "setting": "[7]; B610, 2 mM/L, average of 3 experiments, read-out: width of the inhibition zone (mm), X. campestris", "result": 7, "unit": "mm"}, {"measurement": "zone of inhibition at 2000 µM", "setting": "[7]; B610, Table S3, 2 mM/L, read-out: Inhibition zone width (mm), not less", "result": "≥ 7", "unit": "mm"}, {"measurement": "zone of inhibition at 2000 µM", "setting": "[8]", "result": "4 to 7", "unit": "mm"}]}
